What follows are compounds tested on Molm13 (assay: cells). Details: Homo sapiens, MOLM-13, 96 h, 4 days.
Parameters: Molm13 cell viability screen of virtual-screening hits, 4 days of treatment, per cent of control
Method: We performed virtual screening. Briefly, we screened compounds for binding affinity to PRMT9; compounds were from the National Cancer Institute (NCI) and ZINC library (Fig. 4a,b). […] We used doses of 1 and 5 µM in a Molm13 cell-based viability assay (Extended Data Fig. 6a). […] Specifically, we assessed their effects on PRMT9 catalysis (Extended Data Fig. 6b). […] Cells were treated for 4 days with 1 or 5 μM compounds. For each compound, the number represents its library ID. Experiments were triplicated; P values were derived from t tests. b, R493 methylation assay. […] Catalytic activity was assessed by anti-R493 antibody. Synthesized R493me peptide as positive control. c, Catalysis screen of top 20 compounds. PRMT9 protein was pretreated with indicated compound (10 μM), then incubated with PABPC1 peptides and SAM. d, e, Catalytic activity of indicated compounds based on R493 methylation assay (d). Inhibition curves were calculated based on intensity of dots and normalized to DMSO (e). […] LD2 is designed based on NSC641396 (g). Docking model of NSC641396 in the catalytic pocket (f). h, IC50 analysis of LD2 in B-NHL lines. Cells were treated for 4 days with LD2. […] Cells were treated with a dose titration of 0.5–40 μM LD2 for 48 hr. The inhibition activity of LD2 to PRMT9 (right red curve) was evaluated by calculating the normalized PABPC1 R493 methylation signal. The inhibition activity of LD2 to PRMT5 (right blue curve) was evaluated by calculating the normalized SmB’B’ methylation signal (supplementary Fig. 2). k, Vina docking of LD2 with PRMT9, PRMT5, CARM1 or PRMT7 was performed, and the average docking scores (kcal/mol, with standard deviation) were shown. l, Molecular dynamics simulation analyses of LD2 with PRMT9 or PRMT5.

Compound | viability at 1 µM | viability at 5 µM
O=C(Nc1ccccc1F)Nc1cccc2ccc(O)cc12 [NSC214005] | 81.3% | 72.7%
O=C(Nc1ccccc1F)Oc1cccc(OC(=O)Nc2ccccc2F)c1 [NSC214026] | 92.2% | 91%
CC1=CC(C)(C)Nc2ccc(Cc3ccc4c(c3)C(C)=CC(C)(C)N4)cc21 [NSC217697] | 69.3% | 74.4%
CO[C@@H]1[C@@H](OC(=O)c2ccc(C)[nH]2)[C@@H](O)[C@H](Oc2ccc3c(O)c(NC(=O)c4ccc(O)c(CC=C(C)C)c4)c(=O)oc3c2Cl)OC1(C)C [NSC227186] |  | 110%
Fc1ccc(-c2cc(-c3cccs3)cc(-c3ccccc3)n2)cc1 [NSC246999] |  | 98.7%
Cc1cc(N2CCN(C)CC2)n2nc(-c3ccc(Cl)cc3)nc2n1 [NSC252359] | 64% | 75.8%
O=C1c2ccccc2-c2nc3ccccc3n21 [NSC252777] | 77.6% | 63.7%
O=C(Oc1ccc(NC(=O)c2cc3c(cc2Br)OCO3)cc1)c1ccccc1 [NSC268487] | 83.1% | 72.1%
CO[C@@H]1C[C@](C)(O)Cc2cc3c(c(O)c21)C(=O)c1c(O)cc2c(c1C3=O)O[C@@H]1O[C@@]2(C)[C@H](O)[C@@H](N(C)C)[C@@H]1O [NSC269148] | 2.1% | 1.55%
Cc1ccc(C2=Nc3ccccc3SC(c3cccc([N+](=O)[O-])c3)C2)cc1 (centres unmarked) [NSC270737] | 90.8% | 15.1%
O=[N+]([O-])c1ccc(C2CC(c3ccccc3)=Nc3ccccc3S2)cc1 (centres unmarked) [NSC270738] | 84.6% | 
COc1cc2c(=O)n3c4c(cccc4c2cc1OC)CC3 [NSC276736] | 97.9% | 
O=c1cc(-c2cccnc2)oc2c1ccc1ccccc12 [NSC283845] |  | 60.4%
O=C(Nc1cccc2ccccc12)c1cc2c(cc1Br)OCO2 [NSC292923] | 68.9% | 68.3%
c1ccc(-c2nc3ccccc3nc2-c2ccc(Sc3ccc(-c4nc5ccccc5nc4-c4ccccc4)cc3)cc2)cc1 [NSC293778] | 95.7% | 
Cc1nn(-c2ccccc2)c2c1C(c1ccc([N+](=O)[O-])cc1)C(C#N)=C(N)O2 (centres unmarked) [NSC298892] | 84.2% | 69.1%
Nc1nc(N)c2cc(Sc3ccc4ccccc4c3)ccc2n1 [NSC305780] | 12.7% | 6.56%
OC(c1cc(-c2ccc(C(F)(F)F)cc2)nc(C(F)(F)F)c1)C1CCCCN1 (centres unmarked) [NSC305798] | 91% | 18.9%
N#C/C(=C\C=C\c1ccccc1)c1nc(-c2ccc(Cl)cc2)cs1 [NSC310347] | 69.3% | 74.4%
COc1cc(C2NC(=O)C(C#N)=C(Nc3cccc(C)c3)S2)ccc1O (centres unmarked) [NSC319435] | 96.8% | 
Cc1cccc(NC2=C(C#N)C(=O)NC3(CCCC3)S2)c1 [NSC319436] | 84% | 77.3%
Cc1ccc(NC(=O)Nc2nc3ccccc3s2)cc1NC(=O)Nc1nc2ccccc2s1 [NSC319990] |  | 96.9%
Clc1cc2c(c(CSc3nc4ccccc4n4cccc34)c1)OCOC2 [NSC321491] |  | 85.7%
Cc1c(N2CCCC2)cc2c(c1NC(=O)c1ccccc1Cl)C(C)(C)CC2(C)C [NSC321496] | 92.4% | 79.1%

Compound | viability at 1 µM | viability at 5 µM
c1ccc(CSc2nnc3c4ccccc4c4ccccc4c3n2)cc1 [NSC327702] | 86.4% | 82.6%
Oc1c(Cl)cc(Cl)cc1/C=N/c1nc(-c2ccc(Cl)cc2)cs1 [NSC328104] | 87.9% | 
Clc1ccc(-c2n[nH]c3c2Cc2ccccc2-3)cc1Cl [NSC331968] | 62.9% | 43.2%
Oc1ccccc1-c1nc2c3ccccc3c3ccccc3c2[nH]1 [NSC332670] | 79.2% | 84.8%
O=C(Nc1ccccc1-c1ccccc1)C(=O)Nc1ccccc1-c1ccccc1 [NSC338042] |  | 93.1%
CCN(CC)c1nc(Cl)nc(Nc2ccc3cc(-c4ccccc4)c(=O)oc3c2)n1 [NSC338963] | 114% | 110%
CC(=O)OCc1cc(-c2nc3ccccc3nc2O)nn1-c1ccc(Cl)cc1 [NSC339161] |  | 87.5%
CCN1Cc2c(/C=C/c3ccccc3)nc3ccc(OC)cc3c2N(c2cccc(Cl)c2)C1 [NSC340852] | 88.3% | 53.2%
Cc1nn(-c2ccccc2)nc1C(=O)Nc1ccc2[nH]ncc2c1 [NSC371765] |  | 86.1%
COc1ccc(C2OC3=C(Nc4cc(C)c(C)cc4N3)C2=O)cc1 (centres unmarked) [NSC372275] | 95.6% | 
C#Cc1cccc(NC(=O)c2ccc(Cl)cc2Cl)c1 [NSC372769] | 82.8% | 93.1%
O=C(O)C(Cc1c[nH]c2ccccc12)N1C(=O)c2ccccc2C1=O (centres unmarked) [NSC401077] | 94.6% | 75.3%
O=C(O)CCC(=O)c1ccc2ccc3cccc4ccc1c2c34 [NSC407628] | 94.7% | 100%
O=C(Nc1ccc(Br)c2ccccc12)c1ccc2ccccc2c1O [NSC601359] |  | 72.7%
Cc1c(Cl)cccc1NC(=O)CC1Sc2ccccc2NC1=O (centres unmarked) [NSC634396] | 169% | 118%
COc1ccccc1/C=C1\Cc2ccccc2C1=O [NSC636717] |  | 86%
COc1cccc(/C=C2\CCc3ccccc3C2=O)c1 [NSC636718] |  | 65.6%
COc1ccc2c(c1)c1ccc3c(c1n2C)C(=O)C=CC3=O [NSC641396] | 2.72% | 1.44%
COc1ccc(/C=C2\Cc3ccccc3C2=O)cc1OC [NSC643174] | 116% | 81%
Cc1cccc2c1c1ccc3c(c1n2C)C(=O)C=CC3=O [NSC645330] | 52.5% | 10%
CCCc1cc(=O)oc2c3c(c4c(c12)OC(C)(C)C=C4)OC(C)[C@H](C)[C@@H]3O (some centres unmarked) [NSC661122] | 100% | 79.3%
Cc1ccc2c(c1)c1ccc3c(c1n2C)C(=O)C=CC3=O [NSC661221] | 7.53% | 7.31%
CC(=O)c1sc2c(c1OC(=O)c1ccc(Cl)cc1Cl)c(=O)n(-c1ccccc1)c(=S)n2-c1ccccc1 [NSC671136] | 71.5% | 12.8%
